This is an account of results in article PMC9945734 (BMC Medicine, 2023).

Structures are written as SMILES.

Data set [1] has as its system DU 145 (KLF5 null) cells expressing KLF5^K369R. Put plainly: CCK-8 cell viability assay. The class given is cell-based. Particulars: Homo sapiens, CCK-8, 48 h. As to the method: (§1) According to the manufacturer's instructions, cell viability was measured using a kit from Beyotime Biotechnology. Briefly, cells were seeded onto 96-well plates at 5 × 10^3 cells per well, incubated overnight, and then treated for 48 h with drugs at 0, 0.02, 0.05, 0.14, 0.41, 1.23, 3.7, 11.1, 33.3, and 100 μM. Four drugs were analyzed: furagin, nifuratel, nitazoxanide, and retapamulin. At the end of drug treatment, the medium was removed, the CCK-8 solution was added into each well at 100 μL/well and incubated for 1.5 h at 37°C, and the optical density (OD) was measured at 450 nm using a microplate reader (BioTek).

Data set [2] deals with DU 145 (KLF5 null) cells expressing KLF5. Put plainly: CCK-8 cell viability assay. Particulars: Homo sapiens, CCK-8, 48 h. In kind it is cell-based. The procedure: as §1
For orientation: Tetrazolium dyes change colour on reduction, which living cells bring about.

For data set [3], the system named is PC-3 (KLF5 null) cells expressing KLF5^K369R. Nature of the data set: CCK-8 cell viability assay. The class given is cell-based. Particulars: Homo sapiens, CCK-8, 48 h. The procedure: as §1
Data set [4] relates to PC-3 (KLF5 null) cells expressing KLF5. Put plainly: CCK-8 cell viability assay. In kind it is cell-based. To be noted: Homo sapiens, CCK-8, 48 h. As to the method:
as §1

Data set [5] deals with DU 145 (KLF5 null) cells expressing KLF5^K369Q. Put plainly: CCK-8 cell viability assay. In kind it is cell-based, human. To be noted: for cell number: DU 145-KQ. As to the method:
as §1
We also tested a wider range of NTZ concentrations in PC-3-KQ and DU 145-KQ cells using the CCK-8 assay by seeding 2 × 10^3 cells and 2.5 × 10^3 cells onto each well of 96-well plates. PC-3-KQ cells were treated with NTZ at 0, 0.01, 0.1, […], 2.5, and 5 μM, while DU 145-KQ cells were treated with NTZ at 0, 0.01, 0.1, 5, 10, and 20 μM for 0, 24, 48, and 72 h. The number of viable cells was determined using the CCK-8 solution as described above.

Data set [6] deals with PC-3-KQ-Luc cells. Put plainly: Bone metastasis assay, therapy mode. In kind it is in vivo, Balb/c nude mice. The procedure:
Male Balb/c nude mice at 3-4 weeks old were purchased from Charles River (Beijing, China). Upon arrival at the Animal Center of the Southern University of Science and Technology (SUSTech), mice were quarantined for one week before use. All mice were maintained and handled following the National Institutes of Health guide for the Care and Use of Laboratory Animals. […] The tumor growth and body weight were measured each week. […] Tumor growth in the bone was determined once a week by in vivo BL imaging using the Living Image Software 4.4 (IVIS Spectrum, PerkinElmer Health Sciences, Massachusetts, USA). Ten minutes after intraperitoneal injection of D-luciferin sodium salt (15 mg/mL, 10 μL/g BW) (GM-040611, Genomeditech, Shanghai, China), bioluminescence images were acquired with the following conditions: open emission filter, exposure time = 60 s, binning = medium: 8, field of view = 12.9 ×12.9 cm, and f/stop = 1. Images were then analyzed using the Living Image 4.4 software (PerkinElmer). At the end of treatment, bioluminescence intensities were measured by photon flux of the region of interest (ROI) and compared between the vehicle and NTZ treatment groups. […] CC0113, […] Biotechnology, Beijing, China) was used as vehicle control, and NTZ was solved in CMC. NTZ was delivered into mice via intragastric administration (100 mg/kg BW) every day. After the sacrifice of mice, hind limbs were removed and fixed in 4% paraformaldehyde for 48 h. Limbs were then scanned using a micro-CT scanner (Skyscan1276, Bruker, Kontich, Belgium). For micro-CT imaging, the scan parameters were: source voltage, 60 kV; source current, 100 μA; AI 0.5 mm filter; pixel size, 10 μm; rotation step, 0.4 degrees. The images were then processed and constructed using the NRecon software (Version 1.7.1.6, Bruker) and converted using […] (Version 1.5.4, Bruker). The region of interest (ROI), set at 0.5 mm from the femur growth plate, was analyzed using the CT-Analyser (CTAn) program. Parameters included bone volume/total volume (BV/TV), trabecular number (Tb.N), trabecular separation (Tb.Sp), and trabecular thickness (Tb.Th). Finally, the 3D images were performed in CTvox software (Version 2.0, Bruker). Femurs were decalcified in ethylenediaminetetraacetic (EDTA) decalcification solution (Cat #: R20403-5L, OKA, Beijing, China) for 14-21 days. After decalcification, bone tissues were dehydrated in gradient ethanol from 70 to 95%, soaked in n-butanol for 6 h, and then embedded in paraffin. Tissue blocks were cut into 4 μm sections. After baking in an oven at 63°C for 1.5 h, tissue slides were deparaffinized with xylene, hydrated with gradient ethanol, and then stained with H&E (Cat #: BA4025, BaSO, Zhuhai, China). Slides were then mounted for analysis with neutral resins (Cat #: 25608-33-7, Sigma-Aldrich, MO, USA).

Data set [7] is described as follows: In vivo toxicity: body weight, adverse events, H&E of major organs. Also noted: species or system Balb/c nude mice. Particulars: 100 mg/kg intragastric every day.
Data set [8] deals with PC-3-KLF5, PC-3-KQ, DU 145-KLF5 and DU 145-KQ cell spheroids. Nature of the data set: 3D spheroid invasion assay, KLF5^K369Q- versus KLF5-expressing cells. Particulars: 0-10 μM. The class given is cell-based, human. As to the method:
The invasion assay was performed as previously described. Briefly, PC-3-KQ cells at 80-90% confluency were plated onto 384-well round bottom plates with ultra-low attachment (Cat #: 4516, Corning) at 500 cells per well in 80 μL medium. The plates were then centrifuged at 320 g for 4 min to cluster cells in the bottom of wells and incubated for 3 days. On the fourth day, 40 μL medium was removed from each well, 40 μL of the matrigel-medium mixture was added to each well, and cells were cultured for another 3 days. The matrigel (Cat #: 354234, Corning) was from Corning, and the medium contained 1% FBS. At the end of the incubation, images were taken using a phase contrast microscope (Eclipse Ti2, Nikon, Tokyo, Japan) with 10× object lenses, and the total area of cells and the core sphere area of cells (Fig. 1a) were measured using the Image J software. The invading area was calculated using the following formula: invasion area = total area of cells – core sphere area.
Figure S2. The effect of NTZ on acetylated (KQ) and non-mutated KLF5 cell invasion. (a) The effect of NTZ on the invasion of PC-3-KLF5, PC-3-KQ, DU 145-KLF5 and DU 145-KQ cell spheroids at different concentrations (0-10 μM) and quantitative analysis (b). *, p < 0.05; ***, p < 0.001.

[9] abbreviates: 100 mg/kg intragastric every day.

As to `CC(=O)Oc1ccccc1C(=O)Nc1ncc([N+](=O)[O-])s1` [Nitazoxanide], the IC50 (as a rule, the concentration at which inhibition is half-maximal) in data set [1] stood at 49.2 ± 10.1 µM; in data set [2] it was 55.6 ± 1.4 µM; in data set [3], 11.4 ± 1 µM; in data set [4] it was 7 ± 0.7 µM; in data set [5] (Homo sapiens, DU 145 (KLF5 null), KLF5^K369Q, CCK-8, 48 h) it was 22.7 ± 2.3 µM. In addition, the cell number entry was “decreased cell number” in data set [5] (higher concentrations (up to 20 μM)) and “did not affect cell number” in data set [5] (lower concentrations (0–0.1 μM), 0 to 72 h). In addition, the “bone lesions (micro-CT)” value in data set [6] (setting [9]) is “significantly reduced such lesions”. Moreover, the “tumor area in the bone (H&E)” value in data set [6] (setting [9]) is “significantly reduced the tumor area”. The BV/TV entry in data set [6] (micro-CT of femurs) was “significantly increased”. The “Tb. N” value in data set [6] (micro-CT of femurs) is “significantly increased”. Further, the “Tb. Sp” value in data set [6] (micro-CT of femurs) was “potently decreased”. Further, the “Tb. Th” value in data set [6] (micro-CT of femurs) is “significantly increased”. Moreover, the bioluminescence intensities entry in data set [6] (treatment from day 7 for 4 weeks, 100 mg/kg intragastric every day) is given as “sharply decreased bioluminescence intensities”. Besides, in data set [7] (prevention mode), the “severe adverse events, mortality, histopathological changes in heart, lung, liver, spleen, kidney” value is “no mice in any NTZ-treated group had severe adverse events, mortality, or noticeable histopathological changes”. Besides, in data set [7] (prevention mode, after 5 weeks), the body weight entry is given as “did not show a noticeable change”. In addition, the body weights result in data set [7] (therapy mode) is “not affected”. Also, in data set [8], the “invasion inhibition in KLF5^K369Q- versus KLF5-expressing cells” value is reported as “more potent in invasion inhibition”.
